# Data taken from US8217074B2, “Use of sargachromenol” (Catholic University Industry Academic Cooperation Foundation, priority 2007, dated 2012).
# What was measured:
# [1] = tested on: human keratinocytes HaCaT; assay: Apoptosis by FACS analysis (Propidium Iodide staining); format: cell-based; settings: 24 hours
# Procedure: Apoptosis effect of the sargachromenol of the present invention on human keratinocytes was investigated by FACS and TUNEL analysis. First, for FACS analysis, HaCaT cells were cultured in the same manner as in Example 2-1, transferred to a 10 cm plate, with 2×10^6 cells/well, and incubated at 37° C. in a 5% CO2 incubator for 24 hours. After treating the cells with 0, 1, 2 or 5 μg/mL sargachromenol, they were incubated at 37° C. in a 5% CO2 incubator for 24 hours. Then, the cells were released from the plate using trypsin, and fixed using 4% paraformaldehyde. The fixed cells were treated with 70% alcohol to increase cell membrane permeability. Then, the cells were stained with Propidium Iodide (PI) solution for 30 minutes, and subjected to FACS analysis. Cells treated with DMSO only and not with sargachromenol were used as control group.
# [2] = tested on: human keratinocytes HaCaT; assay: Apoptosis by TUNEL analysis; format: cell-based; settings: increasing concentration, 24 hours
# Procedure: For TUNEL analysis, the cells were incubated for 24 hours as above, and transferred to a chamber slide using an ApopTag® fluorescein in situ apoptosis detection kit. After adhering the cells to the bottom well, they were washed with pH 7.4 PBS solution. The chamber slide was immersed in PBS solution of 4% paraformaldehyde for 30 minutes at room temperature in order to completely fix the cells. And, the cells were washed with PBS and immersed in blocking solution (1% H2O2 in methanol) for 30 minutes at room temperature in order to inhibit the action of endogenous peroxidase. Then, the cells were washed with PBS and immersed in 0.1% sodium citrate solution containing 0.1% Triton X-100 at 4° C. for 2 minutes in order to make the cells permeable. For labeling, the cells were washed with PBS two more times and diluted TUNEL reaction mixture was added to the slide. After incubating in a 37° C. humidified chamber for 60 minutes, the slide was washed with PBS. Then, the slide was further incubated in TBS solution containing 1% BSA and 5% FBS for 20 minutes. After adding anti-fluorescein antibody conjugated with horse-radish peroxidase to the culture medium and reacting at 37° C. for 1 hour, the slide was washed with PBS and DAB-matrix solution was added. Hematoxylin solution was added for counter staining. […]
# [3] = tested on: UVB irradiated human keratinocytes HaCaT; assay: MTT cell viability after sargachromenol pre-treatment and UVB irradiation; format: cell-based
# Procedure: Synergic apoptosis effect by UV and sargachromenol on human keratinocytes was investigated. HaCaT cells were cultured in the same manner as in Example 2-1 and transferred to a 6-well plate, at 3×10^5 cells/well. After about 12 hours of serum starvation, each well was pre-treated with 0, 0.5, 1, 2, 5 or 10 μg/mL sargachromenol, and UVB was irradiated at 150 J/m^2 (FS24T12/UVB/HO, Voltare Co., Fairfield, Conn., USA, 290-320 nm). 18 hours later, without removing the medium, each well was treated with 5 mg/mL MTT reagent at a concentration of 20 μL/100 μL, and incubated for 2 hours. Subsequently, after removing the medium, 150 μL of DMSO was added to each well and cell viability was analyzed by measuring absorbance at 540 nm using a spectrophotometer. Cells non-treated with sargachromenol were used as control group. Cell viability was calculated as relative value of that of the control group (100%).
# nerve cell = settings: Chi Kwan Tsang et al, Neuroscience, 2005; cited from earlier work
# [4] = tested on: caspase-8 and caspase-3 in human keratinocytes HaCaT; assay: Western blot of apoptosis-related factors; format: cell-based
# Procedure: Human keratinocytes HaCaT cells were cultured in the same manner as in Example 2-1 and transferred to a 10 cm plate, at 2×10^6 cells/well. After about 18 hours of serum starvation, the cells were treated with 0, 1, 2 or 5 μg/mL sargachromenol. 18 hours later, the cells were lysed using RIPA buffer [12 mM EDTA, 137 mM NaCl, 20 mM Tris-HCl (pH 8.0), 1 mM Na3VO4 (Sigma-Aldrich, USA) 10 mM NaF (Sigma), 1 mM PMSF (Sigma), 1% Triton X-100, 10% glycerol and protease inhibitor cocktail (Roche, Germany)]. The lysed cells were put in a 1.5 mL tube and, after pipetting, put on ice for 20 minutes. The lysate was centrifuged at 14000 rpm for 20 minutes, and protein was isolated from the supernatant. Sample concentration of the isolated protein was determined using a BCA protein analysis kit (Pierce, Rockford, Ill.) and electrophoresis (SDS-PAGE) was carried out. Western blot analysis was carried out on the protein isolated by the electrophoresis. Western blot analysis was carried out as follows. After electrophoresis of the sample, the protein was transferred from the gel to a polyvinylidene fluoride membrane (Pall Corporation). Then, after blocking the membrane at room temperature for 2 hours using 3% BSA solution (Amresco, USA), it was treated with primary antibodies and reaction was carried out at room temperature for 2 hours. The primary antibodies were anti-caspase-3 antibody, anti-caspase-8 antibody and anti-actin antibody (Cell Signaling Technology, Beverly, Mass.), which are antibodies associated in apoptosis-related signaling. After reaction with the primary antibodies, it was washed with TBS for about 15 minutes and further reacted for 45 minutes by treating with secondary antibodies. The secondary antibodies were goat anti-mouse antibody and goat anti-rabbit antibody (Zymed, San Francisco, USA). Then, after washing sufficiently with TBS for over 30 minutes, protein was identified using an ECL detection kit (Santa Cruz). Cells not treated with sargachromenol were used as control group.
# [5] = tested on: caspase-8, caspase-9 and caspase-3 in human keratinocytes HaCaT; assay: Western blot of apoptosis-related factors after pre-treatment and UVB irradiation; format: cell-based
# Procedure: In Example 4, it was confirmed that UV further enhances the apoptosis of human keratinocytes by sargachromenol. Thus, it was investigated whether UV has effect on sargachromenol-induced apoptosis-related factors. First, human keratinocytes HaCaT cells were cultured in the same manner as in Example 2-1 and transferred to a 10 cm plate, at 2×10^6 cells/well. After about 18 hours of serum starvation, each well was pre-treated with 0, 2 or […] sargachromenol for 30 minutes and UVB was irradiated. 8 hours later, the cells were lysed using RIPA buffer [12 mM EDTA, 137 mM NaCl, 20 mM Tris-HCl (pH 8.0), 1 mM Na3VO4 (Sigma-Aldrich, USA) 10 mM NaF (Sigma), 1 mM PMSF (Sigma), 1% Triton X-100, 10% glycerol and protease inhibitor cocktail (Roche, Germany)]. Electrophoresis (SDS-PAGE) was carried out after determination of protein concentration. Western blot analysis was carried out on the isolated protein as in Example 3. Cells not treated with sargachromenol were used as control group.
# [6] = Cytotoxicity analysis by MTT cell viability assay; format: cell-based, human; settings: human, HaCaT keratinocytes
# Procedure: (§1) Cytotoxicity effect of the sargachromenol of the present invention isolated and purified in Example 1 on human keratinocytes HaCaT was investigated by MTT cell viability analysis.
# (§2) HaCaT cells were obtained from Professor N. Fusenig of the German Cancer Research Institute. The HaCaT cells were incubated in DMEM medium containing 10% FBS (Hyclone), 100 unit/mL penicillin and 100 μg/mL streptomycin at 37° C., in a 5% CO2 incubator. During the incubation, cell viability and number of cells were measured periodically using a hemacytometer (Neubauer, Germany) by the trypan blue exclusion method. In all experiments, initial cell viability was maintained over 95%.
# (§3) The cultured HaCaT cells were transferred to a 96-well plate, with 5×10^4 cells/well, and incubated at 37° C. in a 5% CO2 incubator for 24 hours. Then, the cultured HaCaT cells were treated with 0, 1, 2, 5 or 10 μg/mL sargachromenol, and further incubated at 37° C. in a 5% CO2 incubator for 24 hours. Then, without removing the medium, each well was treated with 5 mg/mL MTT reagent at a concentration of 20 μL/100 μL, and incubated for 2 hours. Subsequently, after removing the medium, 150 μL of DMSO was added to each well and cell viability was analyzed by measuring absorbance at 540 nm using an ELISA reader (Molecular Devices, USA). Cells non-treated with sargachromenol were used as control group. Cell viability was calculated as relative value of that of the control group (100%).
# [7] = tested on: human keratinocytes HaCaT; assay: Cytotoxicity analysis by MTT cell viability assay; format: cell-based; settings: 0, 1, 2, 5 or 10 μg/mL, 24 hours
# Procedure: as §1, §2, §3
structure (smiles),measurement,setting,value
CC(C)=CCC/C(=C/CC/C(C)=C/CCC1(C)C=Cc2cc(O)cc(C)c2O1)C(=O)O (centres unmarked) [sargachromenol],"apoptosis effect, concentration comparison (FACS)",[1]; 5 μg/mL versus 1 μg/mL,better at treatment with 5 μg/mL than 1 μg/mL
same,apoptosis effect versus control group (FACS),"[1]; 1, 2 or 5 μg/mL, control DMSO only",superior in the cells treated with sargachromenol than in the control group
same,number of TUNEL-positive (dead) cells,[2],increased as the concentration of the sargachromenol of the present invention increased
same,viability at 1 µg/mL,"[3]; Homo sapiens, HaCaT, light or radiation study, 1 μg/mL pre-treatment, UVB 150 J/m^2, 18 hours later",~25%
same,apoptosis versus cells without UV,"[3]; pre-treated with sargachromenol and irradiated with UV, compared with same condition without UV",much more increased apoptosis
same,NGF (nerve growth factor)-dependent nerve cell growth promoting activity,nerve cell,reported to have NGF (nerve growth factor)-dependent nerve cell growth promoting activity
same,cleavage of caspase-8 and caspase-3,"[4]; 0, 1, 2 or 5 μg/mL, higher concentration, no UV",caspase-8 and caspase-3 were cleaved
same,quantity of cleaved protein,"[4]; 0, 1, 2 or 5 μg/mL, no UV",increased in a concentration-dependent manner
same,activation of caspase,"[4]; 5 μg/mL sargachromenol only, 18 hours later",Activation of caspase was observed
same,activation of caspase,"[5]; 2 or 5 μg/mL sargachromenol only, no UVB, 8 hours",activation of caspase was not observed
same,cleaved caspases,"[5]; pre-treated with sargachromenol and irradiated with UVB, 8 hour later","cleaved caspase-8, caspase-9 and caspase-3 were observed"
same,"viability at 24 h, 5 μg/mL","[6]; 5 μg/mL sargachromenol only, without UV irradiation",≥ 40%
same,"cytotoxicity at 24 h, 5 μg/mL","[6]; 5 μg/mL sargachromenol, 24 hours, relative to control group (100%), no UV, read-out: reduction of cell viability",40%
same,"cell viability, concentration dependence",[7],cell viability decreased as the concentration of sargachromenol increased
